pIC50: −log10 of the molar value.
Molecular target: Dynamin-1-like protein (Homo sapiens, UniProt O00429)
Assay: Inhibition of DRP1 (unknown origin) using GTP as substrate incubated for 20 mins by malachite green reagent based colorimetric assay

Sequence of Dynamin-1-like protein (O00429 whole entry): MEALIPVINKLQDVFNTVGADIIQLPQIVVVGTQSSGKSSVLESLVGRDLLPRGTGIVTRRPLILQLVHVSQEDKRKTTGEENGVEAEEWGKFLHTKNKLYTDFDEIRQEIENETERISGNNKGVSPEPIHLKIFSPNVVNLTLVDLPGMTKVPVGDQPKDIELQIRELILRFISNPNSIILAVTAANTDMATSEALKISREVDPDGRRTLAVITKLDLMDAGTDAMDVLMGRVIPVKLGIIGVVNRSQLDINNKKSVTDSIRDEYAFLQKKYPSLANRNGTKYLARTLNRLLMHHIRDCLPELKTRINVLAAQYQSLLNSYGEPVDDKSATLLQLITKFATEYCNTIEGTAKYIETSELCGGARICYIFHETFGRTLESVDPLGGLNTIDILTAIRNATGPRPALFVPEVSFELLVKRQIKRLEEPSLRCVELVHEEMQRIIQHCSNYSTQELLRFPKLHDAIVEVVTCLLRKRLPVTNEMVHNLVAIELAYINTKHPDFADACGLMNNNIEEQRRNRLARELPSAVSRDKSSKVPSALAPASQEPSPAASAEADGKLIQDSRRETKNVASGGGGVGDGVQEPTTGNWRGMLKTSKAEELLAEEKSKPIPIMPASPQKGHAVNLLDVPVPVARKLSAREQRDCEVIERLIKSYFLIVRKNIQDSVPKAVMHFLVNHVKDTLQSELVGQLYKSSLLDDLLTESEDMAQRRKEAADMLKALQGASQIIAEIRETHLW

O=C(O)c1ccc(NC(=O)c2cc(Br)cn2Cc2csc(N3CCCCC3)n2)cc1
pIC50: < 4.00
